Measured values published in ChEMBL document CHEMBL4229518, “New β-lactam - Tetramic acid hybrids show promising antibacterial activities” (Bioorg Med Chem Lett, 2018).
≈ marks a conversion by molar mass, not a printed value. Calls of active or inactive are those of the source. The calls are words filed in the database; no cut-off is given here.

Experiments:
Bacillus anthracis = experiment: Antimicrobial activity against Bacillus anthracis Sterne 34F2 after 18 to 20 hrs by microbroth dilution method; assay type: functional
Bacillus subtilis = experiment: Antimicrobial activity against Bacillus subtilis ATCC 23857 after 18 to 20 hrs by microbroth dilution method; assay type: functional
Pseudomonas aeruginosa = experiment: Antimicrobial activity against Pseudomonas aeruginosa PAO1 after 18 to 20 hrs by microbroth dilution method; assay type: functional
Escherichia coli [1] = experiment: Antimicrobial activity against Escherichia coli BW25113 after 18 to 20 hrs by microbroth dilution method; assay type: functional
Escherichia coli [2] = experiment: Antimicrobial activity against tolC deficient Escherichia coli JW5503-1 after 18 to 20 hrs by microbroth dilution method; assay type: functional
Klebsiella pneumoniae [3] = experiment: Antimicrobial activity against Klebsiella pneumoniae ATCC 33495 after 18 to 20 hrs by microbroth dilution method; assay type: functional
Acinetobacter baumannii = experiment: Antimicrobial activity against Acinetobacter baumannii ATCC 19606 after 18 to 20 hrs by microbroth dilution method; assay type: functional; conditions: ATCC 19606 = CIP 70.34 = JCM 6841
Staphylococcus aureus [4] = experiment: Antimicrobial activity against methicillin-susceptible Staphylococcus aureus NRS70 after 18 to 20 hrs by microbroth dilution method; assay type: functional
Staphylococcus aureus [5] = experiment: Antimicrobial activity against methicillin-susceptible Staphylococcus aureus ATCC 29213 after 18 to 20 hrs by microbroth dilution method; assay type: functional
Proteus mirabilis = experiment: Antimicrobial activity against Proteus mirabilis ATCC 25933 after 18 to 20 hrs by microbroth dilution method; assay type: functional
Enterococcus faecalis = experiment: Antimicrobial activity against Enterococcus faecalis ATCC 33186 after 18 to 20 hrs by microbroth dilution method; assay type: functional
Streptococcus pneumoniae = experiment: Antimicrobial activity against Streptococcus pneumoniae R6 after 18 to 20 hrs by microbroth dilution method; assay type: functional
Bacillus cereus = experiment: Antimicrobial activity against Bacillus cereus ATCC 14579 after 18 to 20 hrs by microbroth dilution method; assay type: functional
Enterobacter cloacae = experiment: Antimicrobial activity against Enterobacter cloacae ATCC 13047 after 18 to 20 hrs by microbroth dilution method; assay type: functional; conditions: subsp. cloacae ATCC 13047
Streptococcus pyogenes = experiment: Antimicrobial activity against Streptococcus pyogenes ATCC 700294 after 18 to 20 hrs by microbroth dilution method; assay type: functional; conditions: M1 GAS
[6] = system: Stenotrophomonas maltophilia; experiment: Antimicrobial activity against Stenotrophomonas maltophilia ATCC 700475 after 18 to 20 hrs by microbroth dilution method; assay type: functional
Klebsiella pneumoniae [7] = experiment: Antimicrobial activity against Klebsiella pneumoniae isolate SJ 2 after 18 to 20 hrs by microbroth dilution method; assay type: functional
Escherichia coli [8] = experiment: Antimicrobial activity against Escherichia coli isolate SJ 2 after 18 to 20 hrs by microbroth dilution method; assay type: functional
Escherichia coli [9] = experiment: Antimicrobial activity against Escherichia coli isolate SJ 1 after 18 to 20 hrs by microbroth dilution method; assay type: functional
Escherichia coli [10] = experiment: Antimicrobial activity against Escherichia coli isolate SJ 4 after 18 to 20 hrs by microbroth dilution method; assay type: functional
Escherichia coli [11] = experiment: Antimicrobial activity against Escherichia coli isolate SJ 6 after 18 to 20 hrs by microbroth dilution method; assay type: functional
Klebsiella pneumoniae [12] = experiment: Antimicrobial activity against Klebsiella pneumoniae isolate SJ 1 after 18 to 20 hrs by microbroth dilution method; assay type: functional
Klebsiella pneumoniae [13] = experiment: Antimicrobial activity against Klebsiella pneumoniae isolate SJ 4 after 18 to 20 hrs by microbroth dilution method; assay type: functional
Klebsiella pneumoniae [14] = experiment: Antimicrobial activity against Klebsiella pneumoniae isolate SJ 3 after 18 to 20 hrs by microbroth dilution method; assay type: functional
Escherichia coli [15] = experiment: Antimicrobial activity against Escherichia coli isolate SJ 5 after 18 to 20 hrs by microbroth dilution method; assay type: functional
Escherichia coli [16] = experiment: Antimicrobial activity against Escherichia coli isolate SJ 3 after 18 to 20 hrs by microbroth dilution method; assay type: functional
Klebsiella pneumoniae [17] = experiment: Antimicrobial activity against Klebsiella pneumoniae isolate SJ 5 after 18 to 20 hrs by microbroth dilution method; assay type: functional
Escherichia coli [18] = experiment: Antimicrobial activity against Escherichia coli ATCC 35218 expressing TEM-1 beta lactamases after 18 to 20 hrs by microbroth dilution method; assay type: functional
Escherichia coli [19] = experiment: Antimicrobial activity against Escherichia coli ATCC 25922 after 18 to 20 hrs by microbroth dilution method; assay type: functional
Escherichia coli [20] = experiment: Induction of proton motive force collapse in Escherichia coli BW25113 at 100 uM by flow cytometry; assay type: functional, organism-based

SMILES | MIC (Bacillus anthracis) [µg/mL] | MIC (Bacillus subtilis) [µg/mL] | MIC (Pseudomonas aeruginosa) [µg/mL] | MIC (Escherichia coli [1]) [µg/mL] | MIC (Escherichia coli [2]) [µg/mL] | MIC (Klebsiella pneumoniae [3]) [µg/mL] | MIC (Acinetobacter baumannii) [µg/mL] | MIC (Staphylococcus aureus [4]) [µg/mL] | MIC (Staphylococcus aureus [5]) [µg/mL] | MIC (Proteus mirabilis) [µg/mL] | MIC (Enterococcus faecalis) [µg/mL] | MIC (Streptococcus pneumoniae) [µg/mL] | MIC (Bacillus cereus) [µg/mL] | MIC (Enterobacter cloacae) [µg/mL] | MIC (Streptococcus pyogenes) [µg/mL] | MIC [6] [µg/mL] | MIC (Klebsiella pneumoniae [7]) [µg/mL] | MIC (Escherichia coli [8]) [µg/mL] | MIC (Escherichia coli [9]) [µg/mL] | MIC (Escherichia coli [10]) [µg/mL] | other results
CC(C)CC1NC(=O)C(C(=O)NCCCCCC(=O)N[C@@H](C(=O)N[C@@H]2C(=O)N3[C@@H]2SC(C)(C)[C@@H]3C(=O)O)c2ccccc2)=C1O (some centres not stated) | 3.13 (≈ 4.86 µM) | 3.13 (≈ 4.86 µM) | 50 (≈ 77.7 µM) | 50 (≈ 77.7 µM) | 12.5 (≈ 19.4 µM) | > 200 | 100 (≈ 155 µM) | 50 (≈ 77.7 µM) | 0.78 (≈ 1.21 µM) | 6.25 (≈ 9.71 µM) | 25 (≈ 38.8 µM) | < 0.2 | 50 (≈ 77.7 µM) | > 200 | < 0.2 | 25 (≈ 38.8 µM) |  |  |  |  | 
CO[C@@]1(NC(=O)CSCC#N)C(=O)N2C(C(=O)O)=C(CSc3nnnn3C)CS[C@@H]21 [CEFMETAZOLE] |  |  | > 200 | 0.39 (≈ 0.827 µM) | 1.56 (≈ 3.31 µM) | 3.13 (≈ 6.64 µM) | 25 (≈ 53 µM) |  |  | 0.39 (≈ 0.827 µM) |  |  |  |  |  |  | 0.39 (≈ 0.827 µM) | 0.78 (≈ 1.65 µM) | 0.39 (≈ 0.827 µM) | 0.78 (≈ 1.65 µM) | MIC (Escherichia coli [11]): 12.5 µg/mL (≈ 26.5 µM); MIC (Klebsiella pneumoniae [12]): 0.39 µg/mL (≈ 0.827 µM); MIC (Klebsiella pneumoniae [13]): 0.78 µg/mL (≈ 1.65 µM); MIC (Klebsiella pneumoniae [14]): 0.39 µg/mL (≈ 0.827 µM); MIC (Escherichia coli [15]): 6.25 µg/mL (≈ 13.3 µM); MIC (Escherichia coli [16]): 0.78 µg/mL (≈ 1.65 µM); MIC (Klebsiella pneumoniae [17]): 1.56 µg/mL (≈ 3.31 µM); MIC (Escherichia coli [18]): 0.39 µg/mL (≈ 0.827 µM); MIC (Escherichia coli [19]): 0.78 µg/mL (≈ 1.65 µM)
CC(C)CC1NC(=O)C(C(=O)N[C@@H](C(=O)N[C@@H]2C(=O)N3[C@@H]2SC(C)(C)[C@@H]3C(=O)O)c2ccccc2)=C1O (some centres not stated) | 3.13 (≈ 5.9 µM) | 3.13 (≈ 5.9 µM) | 12.5 (≈ 23.6 µM) | 50 (≈ 94.2 µM) | 6.25 (≈ 11.8 µM) | 200 (≈ 377 µM) | 50 (≈ 94.2 µM) | 25 (≈ 47.1 µM) | 0.78 (≈ 1.47 µM) | 12.5 (≈ 23.6 µM) | 25 (≈ 47.1 µM) | 0.39 (≈ 0.735 µM) | 12.5 (≈ 23.6 µM) | > 200 | 0.39 (≈ 0.735 µM) | 6.25 (≈ 11.8 µM) |  |  |  |  | 
CO[C@@]1(NC(=O)CCCC(=O)C2=C(O)[C@@H](CCC(=O)O)NC2=O)C(=O)N2C(C(=O)O)=C(CSc3nnnn3C)CS[C@@H]21 |  |  | > 200 | 200 (≈ 320 µM) | 200 (≈ 320 µM) | 200 (≈ 320 µM) | > 200 |  |  | 50 (≈ 79.9 µM) |  |  |  |  |  |  | 25 (≈ 40 µM) | 200 (≈ 320 µM) | 200 (≈ 320 µM) | > 200 | Activity (Escherichia coli [20]): inactive; MIC (Escherichia coli [11]): > 200 µg/mL; MIC (Klebsiella pneumoniae [12]): 100 µg/mL (≈ 160 µM); MIC (Klebsiella pneumoniae [13]): 100 µg/mL (≈ 160 µM); MIC (Klebsiella pneumoniae [14]): 200 µg/mL (≈ 320 µM); MIC (Escherichia coli [15]): > 200 µg/mL; MIC (Escherichia coli [16]): 200 µg/mL (≈ 320 µM); MIC (Klebsiella pneumoniae [17]): > 200 µg/mL; MIC (Escherichia coli [18]): 50 µg/mL (≈ 79.9 µM); MIC (Escherichia coli [19]): 200 µg/mL (≈ 320 µM)
CC1=C(C(=O)O)N2C(=O)[C@@H](NC(=O)[C@H](N)c3ccccc3)[C@H]2SC1 [CEPHALEXIN ANHYDROUS] | 3.13 (≈ 9.01 µM) | 0.78 (≈ 2.25 µM) | > 200 | 50 (≈ 144 µM) | 100 (≈ 288 µM) | 50 (≈ 144 µM) | > 200 | > 200 | 3.13 (≈ 9.01 µM) | 50 (≈ 144 µM) | 200 (≈ 576 µM) | 6.25 (≈ 18 µM) | > 200 | > 200 | 3.13 (≈ 9.01 µM) | > 200 |  |  |  |  | 
CC(C)CC1NC(=O)C(C(=O)NCCCC(=O)N[C@@H](C(=O)N[C@@H]2C(=O)N3[C@@H]2SC(C)(C)[C@@H]3C(=O)O)c2ccccc2)=C1O (some centres not stated) | 3.13 (≈ 5.08 µM) | 3.13 (≈ 5.08 µM) | 50 (≈ 81.2 µM) | 25 (≈ 40.6 µM) | 12.5 (≈ 20.3 µM) | > 200 | 100 (≈ 162 µM) | 50 (≈ 81.2 µM) | 0.78 (≈ 1.27 µM) | 1.56 (≈ 2.53 µM) | 25 (≈ 40.6 µM) | < 0.2 | 25 (≈ 40.6 µM) | > 200 | 0.39 (≈ 0.633 µM) | 25 (≈ 40.6 µM) |  |  |  |  | 
N[C@@H](C(=O)N[C@@H]1C(=O)N2C(C(=O)O)=C(Cl)CS[C@H]12)c1ccccc1 [CEFACLOR ANHYDROUS] | 0.39 (≈ 1.06 µM) | < 0.2 | > 200 | 6.25 (≈ 17 µM) | 6.25 (≈ 17 µM) | 1.56 (≈ 4.24 µM) | 200 (≈ 544 µM) | 100 (≈ 272 µM) | 1.56 (≈ 4.24 µM) | 3.13 (≈ 8.51 µM) | 25 (≈ 68 µM) | 0.78 (≈ 2.12 µM) | > 200 | > 200 | 0.39 (≈ 1.06 µM) | > 200 | 1.56 (≈ 4.24 µM) | 200 (≈ 544 µM) | 50 (≈ 136 µM) | > 200 | MIC (Escherichia coli [11]): > 200 µg/mL; MIC (Klebsiella pneumoniae [12]): 200 µg/mL (≈ 544 µM); MIC (Klebsiella pneumoniae [13]): 1.56 µg/mL (≈ 4.24 µM); MIC (Klebsiella pneumoniae [14]): 1.56 µg/mL (≈ 4.24 µM); MIC (Escherichia coli [15]): 50 µg/mL (≈ 136 µM); MIC (Escherichia coli [16]): 12.5 µg/mL (≈ 34 µM); MIC (Klebsiella pneumoniae [17]): > 200 µg/mL; MIC (Escherichia coli [18]): 50 µg/mL (≈ 136 µM); MIC (Escherichia coli [19]): 12.5 µg/mL (≈ 34 µM)
